{"source": "the supplement of paper PMC10307832", "data": [{"compound": "Cn1nnc2c(C(N)=O)ncn2c1=O [Temozolomide] + Cc1cc(Nc2cc(N3CCN(C)CC3)nc(Sc3ccc(NC(=O)C4CC4)cc3)n2)n[nH]1 [Tozasertib] (partner 0.1 µM)", "assay": "relative viability (nuclei count vs DMSO), 5 days (fraction); higher = more cells survive", "conditions": "first compound 20 µM", "method_in_brief": "(§1)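 The day after seeding in 1536-well plates, lung cancer cell lines were treated by pin tool with a single drug, or with a fixed anchor-drug dose together with five library-drug doses (not always all listed) in √10 steps. After 5 days, a combined fix-and-stain solution (final 0.05% Triton X-100, 1% formaldehyde, 1 ug/ml Hoechst) was added. Nuclei counted on 4× images gave relative viability as treated counts over vehicle counts, reported as the median of duplicate plates.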", "values": [{"cell line": "NCI-H2023", "relative viability": 0.403}, {"cell line": "NCI-H2085", "relative viability": 0.855}, {"cell line": "NCI-H2087", "relative viability": 0.25}, {"cell line": "NCI-H2126", "relative viability": 0.87}, {"cell line": "NCI-H2170", "relative viability": 0.405}, {"cell line": "NCI-H2228", "relative viability": 0.251}, {"cell line": "NCI-H2342", "relative viability": 0.346}, {"cell line": "NCI-H2347", "relative viability": 0.576}, {"cell line": "NCI-H2405", "relative viability": 0.776}, {"cell line": "NCI-H3122", "relative viability": 0.46}, {"cell line": "PC-3 [JPC-3]", "relative viability": 0.431}, {"cell line": "PC-14", "relative viability": 0.0992}, {"cell line": "RERF-LC-KJ", "relative viability": 0.499}, {"cell line": "SK-LU-1", "relative viability": 0.235}, {"cell line": "SK-MES-1", "relative viability": 0.973}, {"cell line": "SW 900", "relative viability": 0.462}, {"cell line": "SW 1573", "relative viability": 0.169}, {"cell line": "UMC-11", "relative viability": 0.191}]}, {"compound": "C[C@@H](C(=O)N[C@@H](C1CCCCC1)C(=O)N2CCC[C@H]2C(=O)N[C@@H]3[C@@H](CC4=CC=CC=C34)OCC#CC#CCO[C@@H]5CC6=CC=CC=C6[C@@H]5NC(=O)[C@@H]7CCCN7C(=O)[C@H](C8CCCCC8)NC(=O)[C@H](C)NC)NC [AZD5582] + O=C(CCCCCCC(=O)Nc1ccccc1)NO [Vorinostat] (partner 1 µM)", "assay": "relative viability (nuclei count vs DMSO), 5 days (fraction); higher = more cells survive", "conditions": "first compound 0.001581 µM", "method_in_brief": "as §1", "values": [{"cell line": "NCI-H650", "relative viability": 0.316}, {"cell line": "NCI-H661", "relative viability": 0.742}, {"cell line": "NCI-H727", "relative viability": 1.06}, {"cell line": "NCI-H838", "relative viability": 0.716}, {"cell line": "NCI-H1355", "relative viability": 0.568}, {"cell line": "NCI-H1395", "relative viability": 0.721}, {"cell line": "NCI-H1437", "relative viability": 0.711}, {"cell line": "NCI-H1650", "relative viability": 0.528}, {"cell line": "NCI-H1651", "relative viability": 0.525}, {"cell line": "NCI-H1666", "relative viability": 0.848}, {"cell line": "NCI-H1734", "relative viability": 0.754}, {"cell line": "NCI-H1755", "relative viability": 0.775}, {"cell line": "NCI-H1793", "relative viability": 0.767}, {"cell line": "NCI-H1915", "relative viability": 0.428}, {"cell line": "NCI-H1944", "relative viability": 0.464}, {"cell line": "NCI-H1975", "relative viability": 0.699}, {"cell line": "NCI-H1993", "relative viability": 0.725}, {"cell line": "NCI-H2009", "relative viability": 0.695}, {"cell line": "NCI-H2023", "relative viability": 0.508}, {"cell line": "NCI-H2085", "relative viability": 0.82}, {"cell line": "NCI-H2087", "relative viability": 0.424}, {"cell line": "NCI-H2126", "relative viability": 0.817}, {"cell line": "NCI-H2170", "relative viability": 0.683}, {"cell line": "NCI-H2228", "relative viability": 0.81}, {"cell line": "NCI-H2342", "relative viability": 0.789}, {"cell line": "NCI-H2347", "relative viability": 0.63}, {"cell line": "NCI-H2405", "relative viability": 1.04}, {"cell line": "NCI-H3122", "relative viability": 0.946}, {"cell line": "PC-3 [JPC-3]", "relative viability": 0.714}, {"cell line": "PC-14", "relative viability": 0.636}, {"cell line": "RERF-LC-KJ", "relative viability": 0.306}, {"cell line": "SK-LU-1", "relative viability": 0.7}, {"cell line": "SK-MES-1", "relative viability": 1.08}, {"cell line": "SW 900", "relative viability": 0.435}, {"cell line": "SW 1573", "relative viability": 0.492}, {"cell line": "UMC-11", "relative viability": 0.396}]}, {"compound": "C[C@@H](C(=O)N[C@@H](C1CCCCC1)C(=O)N2CCC[C@H]2C(=O)N[C@@H]3[C@@H](CC4=CC=CC=C34)OCC#CC#CCO[C@@H]5CC6=CC=CC=C6[C@@H]5NC(=O)[C@@H]7CCCN7C(=O)[C@H](C8CCCCC8)NC(=O)[C@H](C)NC)NC [AZD5582] + O=C(CCCCCCC(=O)Nc1ccccc1)NO [Vorinostat] (partner 1 µM)", "assay": "relative viability (nuclei count vs DMSO), 5 days (fraction); higher = more cells survive", "conditions": "first compound 0.005 µM", "method_in_brief": "as §1", "values": [{"cell line": "NCI-H650", "relative viability": 0.305}, {"cell line": "NCI-H661", "relative viability": 0.786}, {"cell line": "NCI-H727", "relative viability": 1.13}, {"cell line": "NCI-H838", "relative viability": 0.775}, {"cell line": "NCI-H1355", "relative viability": 0.711}, {"cell line": "NCI-H1395", "relative viability": 0.789}, {"cell line": "NCI-H1437", "relative viability": 0.751}, {"cell line": "NCI-H1650", "relative viability": 0.534}, {"cell line": "NCI-H1651", "relative viability": 0.557}, {"cell line": "NCI-H1666", "relative viability": 0.891}, {"cell line": "NCI-H1734", "relative viability": 0.85}, {"cell line": "NCI-H1755", "relative viability": 0.863}, {"cell line": "NCI-H1793", "relative viability": 0.927}, {"cell line": "NCI-H1915", "relative viability": 0.439}, {"cell line": "NCI-H1944", "relative viability": 0.641}, {"cell line": "NCI-H1975", "relative viability": 0.872}, {"cell line": "NCI-H1993", "relative viability": 0.888}, {"cell line": "NCI-H2009", "relative viability": 0.743}, {"cell line": "NCI-H2023", "relative viability": 0.725}, {"cell line": "NCI-H2085", "relative viability": 1}, {"cell line": "NCI-H2087", "relative viability": 0.788}, {"cell line": "NCI-H2126", "relative viability": 0.84}, {"cell line": "NCI-H2170", "relative viability": 0.834}, {"cell line": "NCI-H2228", "relative viability": 0.702}, {"cell line": "NCI-H2342", "relative viability": 0.778}, {"cell line": "NCI-H2347", "relative viability": 0.547}, {"cell line": "NCI-H2405", "relative viability": 1.1}, {"cell line": "NCI-H3122", "relative viability": 1.09}, {"cell line": "PC-3 [JPC-3]", "relative viability": 0.532}, {"cell line": "PC-14", "relative viability": 0.881}, {"cell line": "RERF-LC-KJ", "relative viability": 0.225}, {"cell line": "SK-LU-1", "relative viability": 0.505}, {"cell line": "SK-MES-1", "relative viability": 1.19}, {"cell line": "SW 900", "relative viability": 0.444}, {"cell line": "SW 1573", "relative viability": 0.865}, {"cell line": "UMC-11", "relative viability": 0.391}]}, {"compound": "C[C@@H](C(=O)N[C@@H](C1CCCCC1)C(=O)N2CCC[C@H]2C(=O)N[C@@H]3[C@@H](CC4=CC=CC=C34)OCC#CC#CCO[C@@H]5CC6=CC=CC=C6[C@@H]5NC(=O)[C@@H]7CCCN7C(=O)[C@H](C8CCCCC8)NC(=O)[C@H](C)NC)NC [AZD5582] + O=C(CCCCCCC(=O)Nc1ccccc1)NO [Vorinostat] (partner 1 µM)", "assay": "relative viability (nuclei count vs DMSO), 5 days (fraction); higher = more cells survive", "conditions": "first compound 0.01581 µM", "method_in_brief": "as §1", "values": [{"cell line": "NCI-H650", "relative viability": 0.308}, {"cell line": "NCI-H661", "relative viability": 0.806}, {"cell line": "NCI-H727", "relative viability": 1.01}, {"cell line": "NCI-H838", "relative viability": 0.855}, {"cell line": "NCI-H1355", "relative viability": 0.535}, {"cell line": "NCI-H1437", "relative viability": 0.838}, {"cell line": "NCI-H1650", "relative viability": 0.576}, {"cell line": "NCI-H1651", "relative viability": 0.56}, {"cell line": "NCI-H1666", "relative viability": 1.05}, {"cell line": "NCI-H1734", "relative viability": 0.889}, {"cell line": "NCI-H1755", "relative viability": 0.688}, {"cell line": "NCI-H1793", "relative viability": 0.565}, {"cell line": "NCI-H1915", "relative viability": 0.462}, {"cell line": "NCI-H1944", "relative viability": 0.542}, {"cell line": "NCI-H1975", "relative viability": 0.687}, {"cell line": "NCI-H1993", "relative viability": 0.795}, {"cell line": "NCI-H2009", "relative viability": 0.711}, {"cell line": "NCI-H2023", "relative viability": 0.627}, {"cell line": "NCI-H2085", "relative viability": 0.73}, {"cell line": "NCI-H2087", "relative viability": 0.712}, {"cell line": "NCI-H2126", "relative viability": 0.47}, {"cell line": "NCI-H2170", "relative viability": 0.787}, {"cell line": "NCI-H2228", "relative viability": 0.667}, {"cell line": "NCI-H2342", "relative viability": 0.751}, {"cell line": "NCI-H2347", "relative viability": 0.515}, {"cell line": "NCI-H2405", "relative viability": 0.88}, {"cell line": "NCI-H3122", "relative viability": 0.924}, {"cell line": "PC-3 [JPC-3]", "relative viability": 0.664}, {"cell line": "PC-14", "relative viability": 0.406}, {"cell line": "RERF-LC-KJ", "relative viability": 0.655}, {"cell line": "SK-LU-1", "relative viability": 0.824}, {"cell line": "SK-MES-1", "relative viability": 1.02}, {"cell line": "SW 900", "relative viability": 0.364}, {"cell line": "SW 1573", "relative viability": 1.12}, {"cell line": "UMC-11", "relative viability": 0.381}]}, {"compound": "C[C@@H](C(=O)N[C@@H](C1CCCCC1)C(=O)N2CCC[C@H]2C(=O)N[C@@H]3[C@@H](CC4=CC=CC=C34)OCC#CC#CCO[C@@H]5CC6=CC=CC=C6[C@@H]5NC(=O)[C@@H]7CCCN7C(=O)[C@H](C8CCCCC8)NC(=O)[C@H](C)NC)NC [AZD5582] + O=C(CCCCCCC(=O)Nc1ccccc1)NO [Vorinostat] (partner 1 µM)", "assay": "relative viability (nuclei count vs DMSO), 5 days (fraction); higher = more cells survive", "conditions": "first compound 0.05 µM", "method_in_brief": "as §1", "values": [{"cell line": "NCI-H650", "relative viability": 0.619}, {"cell line": "NCI-H661", "relative viability": 0.762}, {"cell line": "NCI-H727", "relative viability": 1.16}, {"cell line": "NCI-H838", "relative viability": 0.956}, {"cell line": "NCI-H1355", "relative viability": 0.596}, {"cell line": "NCI-H1395", "relative viability": 0.768}, {"cell line": "NCI-H1437", "relative viability": 0.743}, {"cell line": "NCI-H1650", "relative viability": 0.572}, {"cell line": "NCI-H1651", "relative viability": 0.584}, {"cell line": "NCI-H1666", "relative viability": 0.958}, {"cell line": "NCI-H1734", "relative viability": 0.877}, {"cell line": "NCI-H1755", "relative viability": 0.88}, {"cell line": "NCI-H1793", "relative viability": 0.587}, {"cell line": "NCI-H1915", "relative viability": 0.477}, {"cell line": "NCI-H1944", "relative viability": 0.619}, {"cell line": "NCI-H1975", "relative viability": 0.885}, {"cell line": "NCI-H1993", "relative viability": 1.03}, {"cell line": "NCI-H2009", "relative viability": 0.792}, {"cell line": "NCI-H2023", "relative viability": 0.643}, {"cell line": "NCI-H2085", "relative viability": 0.917}, {"cell line": "NCI-H2087", "relative viability": 0.594}, {"cell line": "NCI-H2126", "relative viability": 0.704}, {"cell line": "NCI-H2170", "relative viability": 0.91}, {"cell line": "NCI-H2228", "relative viability": 0.645}, {"cell line": "NCI-H2342", "relative viability": 0.785}]}]}
